Entries after “also recorded” stand apart in the source; their conditions may differ.
Experiment: Photostability test in Q-Sun Xenon Test Chamber (accelerated photodegradation), LC/MSD quantitation
Format: physicochemical
Details: for percent Compound 1 remaining: 10 ppm; for effect of sorbate on photostability: 250 ppm potassium sorbate versus no photostabilizer; for effect of sorbate on photostability / rate of degradation, trend with pH: 10 ppm Compound 1 or 5 ppm Compound 2; for rate of degradation, trend with pH: no photostabilizer, pH 2.8, 4.0, 5.0, 7.1; for percent Compound 2 remaining: 5 ppm
Description: Aqueous buffer solution at pH 7.1 contains 50 mM potassium dihydogen phosphate and ˜32 mM sodium hydroxide (solutions of 1.0 M hydrochloric acid and 1.0 M sodium hydroxide are used to adjust pH). Aqueous buffer solution at pH 4.0 contains 50 mM citric acid monosodium salt and ˜7.4 mM sodium hydroxide (solutions of 1.0 M hydrochloric acid and 1.0 M sodium hydroxide are used to adjust pH). Aqueous buffer solution at pH 2.8 contains 50 mM citric acid and ˜16 mM sodium hydroxide (solutions of 1.0 M hydrochloric acid and 1.0 M sodium hydroxide are used to adjust pH). Aqueous buffer solution at pH 5.0 contains 50 mM acetic acid and ˜32 mM sodium hydroxide (solutions of 1.0 M hydrochloric acid and 1.0 M sodium hydroxide are used to adjust pH). All the buffers also contained 30 ppm ethylenediaminetetraacetic acid (EDTA).
The stock solutions of the test compounds at 10 mM for compound I and at 2000 ppm for compound II are made by dissolving the compounds in ethanol and water with 0.2% sodium bicarbonate, respectively. The solutions of the stabilizers are made by dissolving the materials in the aqueous buffers. The stock solutions are then diluted to 5 or 10 ppm with the stabilizer solutions to prepare the test solution and 10-mL aliquots of the solutions are transferred to 20-mL clear glass vial for testing.
Accelerated photodegradation was studied using a Q-Sun Xenon Test Chamber (Q-Lab Model No. Xe-1-SC) at an irradiance setting of 350 mW/m^2 at 340 nm and temperature of 25 degrees Celsius. To put this in perspective, 24 hours of constant Q-Sun irradiation at these settings is approximately equivalent to 12.4 days of direct sunlight in the southwestern United States. At 0, 1, 2, 4, 6 and 24 hours from the beginning of the radiation, a 0.4-mL aliquot from each vial is pippeted out to a 1-mL glass insert for analysis.
The samples are analyzed using an Agilent 1290 LC/MSD equipped with a diode-array detector (DAD). The peak areas from the MSD chromatograms are used for quantitation, and the photostability is shown by plotting the percentages of the test compound which remains intact at all time points. The peak areas from the DAD chromatograms are used for quantitation for stabilizers with concentration at […] or higher. The instrument conditions are listed below. • Column: Water Acquity HSS T3 C18 1.8 μm, 2.1×30 mm • Column Temperature: 30° C. • Auto-sampler Temperature: Room temperature • Mobile Phase A: 0.1% formic acid in water • Mobile Phase B: 0.1% formic acid in acetonitrile • Gradient: 0-1 min, linear gradient 5-50% B; 1.0-1.2 min, linear gradient 50-100% B; 1.2-2.0 min, 100% B; flow rate is 1.2 mL/min, and Post time is 0.5 min. • Injection volume: 10 uL • MSD ion source: APCI • MSD Signal settings: Positive, selected ion monitoring (SIM) at the mass of the expected molecular ions. • UV detection wavelength: 230 nm. • MSD detection start time: 0.65 min
(§1) A Q-Sun Xenon Test Chamber (Q-Lab Model No. Xe-1-SC), which reproduces the entire spectrum of natural sunlight, was used to study the photostability of Compound 1 in various mediums (with or without photostabilizers). The equivalent sunlight exposure time for 24 hours in the Q-Sun at a constant temperature of 25° C. and irradiance of 450 mW/m^2 @ 340 nm is estimated to be equivalent to approximately 15.9 days of direct sunlight in the Southwestern United States.
as §1, with “Compound 2” for “Compound 1”

[1] = 250 ppm potassium sorbate, pH 4.0, after 4 hours exposure
[2] = absence of photostabilizer, pH 7.1, after 4 hours exposure
[3] = absence of sorbate, pH 2.8, after 4 hours exposure
[4] = absence of sorbate, pH 4.0, after 4 hours exposure

| percentage of Compound 1 remaining (10 ppm Compound 1, no photostabilizer, all pH values (2.8, 4.0, 5.0, 7.1), after 4 hours light exposure, 25° C.) | percent Compound 1 remaining [1] | percent Compound 1 remaining [2] | percent Compound 1 remaining [3] | percent Compound 1 remaining [4] | rate of degradation, trend with pH | percentage of Compound 2 remaining (5 ppm Compound 2, no photostabilizer, all pH values (2.8, 4.0, 5.0, 7.1), after 4 hours light exposure, 25° C.) | percent Compound 2 remaining [1] | percent Compound 2 remaining (250 ppm potassium sorbate, pH 5.0, after 4 hours exposure) | percent Compound 2 remaining [2] | percent Compound 2 remaining [3] | percent Compound 2 remaining [4] | SMILES | effect of sorbate on photostability |
| --- | --- | --- | --- | --- | --- | --- | --- | --- | --- | --- | --- | --- | --- |
| less than 20% | about 47% | no compound remained | about 14% | about 10% | decreases with decreasing pH |  |  |  |  |  |  | CCCNC(=O)C(C)(C)COc1cccc2c1C(N)=NS(=O)(=O)N2 [Compound 1, 3-(4-Amino-2,2-dioxide-1H-benzo[c][1,2,6]thiadiazin-5-yloxy)-2′,2′-dimethyl-N-propylpropanamide] | remarkably improved stability to photo-degradation; also recorded: significantly enhances the photostability |
|  |  |  |  |  | decreases with decreasing pH | less than 20% | about 42% | about 15% | no compound remained | about 15% | about 5% | CC(C)CC(=O)N1CCC[C@H](COc2cccc3c2C(N)=NS(=O)(=O)N3)C1 [Compound 2, (S)-1-(3-(((4-amino-2,2-dioxido-1H-benzo[c][1,2,6]thiadiazin-5-yl)oxy)methyl)piperidin-1-yl)-3-methylbutan-1-one] | remarkably improved stability to photo-degradation; also recorded: significantly enhances the photostability |

From US20170119033A1, “METHOD OF IMPROVING STABILITY OF SWEET ENHANCER AND COMPOSITION CONTAINING STABILIZED SWEET ENHANCER” (Senomyx, Inc., priority 2016, published 2017)
